The values that follow come from ChEMBL document CHEMBL1131759, “A mutational study of a Diels-Alderase catalytic antibody” (Bioorg Med Chem Lett, 1999).

Each structure is given as a SMILES string.

What all share (type): ADME
The nature of data set [1]: Kinetic constant for the germline antibody.
Data set [2] is described as follows: Kinetic constant for the 39-A11 antibody.
Data set [3] is described as follows: Kinetic constant for the Val91Tyr (39-A11).
A short description of data set [4]: Kinetic constant for the SerL91Val (germline).

Consider `CC(=O)Nc1ccc(N2C(=O)C=CC2=O)cc1`, for which the Km (as a rule, the substrate concentration at which the rate is half of its maximum) in data set [1] came to 450 µM; in data set [2], 740 µM; in data set [3], 420 µM; in data set [4], 740 µM.
Turning to `C=C/C=C/NC(=O)OCC(=O)O`, the Km in data set [1] worked out at 1400 µM; in data set [2], 1200 µM; in data set [3], 2100 µM; in data set [4], 1200 µM.
